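Interpolation was linear, between the two tested concentrations surrounding the appropriate level; five concentrations were tested over 48 hours in 96-well plates. GI50 = concentration required for 50% inhibition of growth.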 The source made the active and inactive calls. No stated cut-off is given here; in the data, active = GI50 up to about 1.1 µM and inactive = higher.
Assays:
Assay in all cases: NCI anticancer screen, dose series, 48 h
KM-20L2 = system: KM-20L2
LXFL 529 = system: LXFL 529
RPMI-8226 = system: RPMI-8226
SW-620 = system: SW-620
K562 = system: K562
NCI-H460 = system: NCI-H460
SK-MEL-5 = system: SK-MEL-5
UACC-257 = system: UACC-257
CCRF-CEM = system: CCRF-CEM
A549 = system: A549
HOP-18 = system: HOP-18
M14 = system: M14
CAKI-1 = system: CAKI-1
Malme-3M = system: Malme-3M
TK-10 = system: TK-10
SK-MEL-2 = system: SK-MEL-2
IGROV-1 = system: IGROV-1
SNB-75 = system: SNB-75
SF-539 = system: SF-539
HCT-116 = system: HCT-116
U-251 = system: U-251
OVCAR-4 = system: OVCAR-4
OVCAR-5 = system: OVCAR-5
786-0 = system: 786-0
NCI-H23 = system: NCI-H23
HT-29 = system: HT-29
MOLT-4 = system: MOLT-4
OVCAR-8 = system: OVCAR-8
SK-MEL-28 = system: SK-MEL-28
HCC 2998 = system: HCC 2998
UACC-62 = system: UACC-62
EKVX = system: EKVX
NCI-H522 = system: NCI-H522
SK-OV-3 = system: SK-OV-3
DLD-1 = system: DLD-1
SF-295 = system: SF-295
KM12 = system: KM12
XF498 = system: XF498
COLO 205 = system: COLO 205
SF-268 = system: SF-268
SN12C = system: SN12C
OVCAR-3 = system: OVCAR-3
HOP-62 = system: HOP-62
SNB-78 = system: SNB-78
A498 = system: A498
ACHN = system: ACHN
M19-MEL = system: M19-MEL
SNB-19 = system: SNB-19
UO-31 = system: UO-31
HCT-15 = system: HCT-15
LOX IMVI = system: LOX IMVI
DMS-114 = system: DMS-114
SR = system: SR
DMS-273 = system: DMS-273
HOP-92 = system: HOP-92
NCI-H226 = system: NCI-H226
HL-60 = system: HL-60
RXF 393 = system: RXF 393
MCF7 = system: MCF7
NCI/ADR-RES = system: NCI/ADR-RES

Measured: GI50

N#C/C(=C/c1ccc2c(c1)OCO2)C(=O)c1ccccc1
> 100 µM: HCT-15
inactive: KM-20L2 > 100 µM | LXFL 529 > 100 µM | RPMI-8226 > 100 µM | SW-620 > 100 µM | K562 > 100 µM | NCI-H460 > 100 µM | SK-MEL-5 > 100 µM | UACC-257 > 100 µM | CCRF-CEM > 100 µM | A549 > 100 µM | HOP-18 > 100 µM | M14 > 100 µM | CAKI-1 > 100 µM | Malme-3M > 100 µM | TK-10 > 100 µM | SK-MEL-2 > 100 µM | IGROV-1 > 100 µM | SNB-75 > 100 µM | SF-539 > 100 µM | HCT-116 > 100 µM | U-251 > 100 µM | OVCAR-4 > 100 µM | OVCAR-5 > 100 µM | 786-0 > 100 µM | NCI-H23 > 100 µM | HT-29 > 100 µM | MOLT-4 > 100 µM | OVCAR-8 > 100 µM | SK-MEL-28 > 100 µM | HCC 2998 > 100 µM | UACC-62 > 100 µM | EKVX > 100 µM | NCI-H522 > 100 µM | SK-OV-3 > 100 µM | DLD-1 > 100 µM | SF-295 > 100 µM | KM12 > 100 µM | XF498 > 100 µM | COLO 205 > 100 µM | SF-268 > 100 µM | SN12C > 100 µM | OVCAR-3 > 100 µM | HOP-62 > 100 µM | SNB-78 > 100 µM | A498 > 100 µM | ACHN > 100 µM | M19-MEL > 100 µM | SNB-19 > 100 µM | UO-31 > 100 µM

CC(SC1=CC(=O)c2c(Cl)ccc(O)c2C1=O)C(=O)O (configuration not stated)
inactive: KM-20L2 74.6 µM | LXFL 529 16 µM | RPMI-8226 19.8 µM | SW-620 19.4 µM | K562 18.7 µM | LOX IMVI 10.1 µM | NCI-H460 26.6 µM | DMS-114 18.2 µM | SK-MEL-5 14.3 µM | UACC-257 15.8 µM | CCRF-CEM 5.25 µM | SR 6.56 µM | A549 22.4 µM | HOP-18 27.5 µM | Malme-3M 19.7 µM | TK-10 20.7 µM | SK-MEL-2 17.5 µM | IGROV-1 17.3 µM | SNB-75 16.9 µM | SF-539 18.3 µM | HCT-116 17.8 µM | U-251 17.7 µM | NCI-H23 > 10 µM | DMS-273 18.1 µM | HT-29 > 10 µM | HOP-92 21.6 µM | MOLT-4 18.5 µM | OVCAR-8 18.2 µM | SK-MEL-28 18.5 µM | HCC 2998 21.3 µM | NCI-H226 43.3 µM | HL-60 2.79 µM | EKVX 21.3 µM | DLD-1 17.3 µM | SF-295 19 µM | KM12 18 µM | XF498 19.9 µM | COLO 205 21.3 µM | SF-268 20.2 µM | SN12C 16.7 µM | SNB-78 12.6 µM | A498 67.1 µM | RXF 393 > 10 µM
17.1 µM: HCT-15

Nc1nc(=O)[nH][nH]1
> 100 µM: HCT-15
inactive: KM-20L2 > 100 µM | RPMI-8226 > 100 µM | SW-620 > 100 µM | K562 > 100 µM | LOX IMVI > 100 µM | NCI-H460 > 100 µM | DMS-114 > 100 µM | SK-MEL-5 > 100 µM | UACC-257 > 100 µM | CCRF-CEM > 100 µM | A549 > 100 µM | CAKI-1 > 100 µM | Malme-3M > 100 µM | SK-MEL-2 > 100 µM | IGROV-1 > 100 µM | SNB-75 > 100 µM | SF-539 > 100 µM | HCT-116 > 100 µM | U-251 > 100 µM | OVCAR-4 > 100 µM | OVCAR-5 > 100 µM | NCI-H23 > 100 µM | DMS-273 > 100 µM | MCF7 > 100 µM | HT-29 > 100 µM | HOP-92 > 100 µM | MOLT-4 > 100 µM | OVCAR-8 > 100 µM | SK-MEL-28 > 100 µM | HCC 2998 > 100 µM | NCI/ADR-RES > 100 µM | NCI-H226 > 100 µM | UACC-62 > 100 µM | HL-60 > 100 µM | EKVX > 100 µM | NCI-H522 > 100 µM | SK-OV-3 > 100 µM | DLD-1 > 100 µM | SF-295 > 100 µM | KM12 > 100 µM | XF498 > 100 µM | COLO 205 > 100 µM | SF-268 > 100 µM | SN12C > 100 µM | OVCAR-3 > 100 µM | HOP-62 > 100 µM | SNB-78 > 100 µM | A498 > 100 µM | RXF 393 > 100 µM | M19-MEL > 100 µM | SNB-19 > 100 µM | UO-31 > 100 µM

O=C/C1=C/C2=Cc3ccccc3C=C(/C=C(/C=O)C1)C2
inactive: KM-20L2 > 100 µM | LXFL 529 30.3 µM | RPMI-8226 32 µM | SW-620 44.7 µM | K562 18.1 µM | LOX IMVI 33.9 µM | NCI-H460 81.1 µM | DMS-114 38.3 µM | SK-MEL-5 35.3 µM | UACC-257 30.9 µM | CCRF-CEM 16.2 µM | A549 > 100 µM | M14 43.4 µM | CAKI-1 41.1 µM | Malme-3M 90.4 µM | TK-10 > 100 µM | SK-MEL-2 > 100 µM | IGROV-1 > 100 µM | SNB-75 27.2 µM | SF-539 46.6 µM | HCT-116 19.4 µM | U-251 34.3 µM | OVCAR-4 46.7 µM | OVCAR-5 > 100 µM | 786-0 78.2 µM | NCI-H23 32.9 µM | DMS-273 34.2 µM | HT-29 40.5 µM | HOP-92 27.7 µM | MOLT-4 15.8 µM | OVCAR-8 28.9 µM | SK-MEL-28 39.6 µM | HCC 2998 45.9 µM | NCI-H226 43.2 µM | UACC-62 73.6 µM | HL-60 41.5 µM | EKVX > 100 µM | NCI-H522 > 100 µM | DLD-1 38.4 µM | SF-295 29 µM | KM12 36.1 µM | XF498 54.5 µM | COLO 205 > 100 µM | SF-268 38.1 µM | SN12C 42.6 µM | OVCAR-3 37.5 µM | HOP-62 74.8 µM | SNB-78 52.7 µM | A498 > 100 µM | RXF 393 28.1 µM | ACHN > 100 µM | M19-MEL 53.8 µM | SNB-19 44.9 µM | UO-31 34 µM
31.4 µM: HCT-15

From ChEMBL document CHEMBL1201862, “PubChem BioAssay data set” (2004)
